Measured values taken from ChEMBL document CHEMBL2073832, “Induction of cMrp/cMoat gene expression by cisplatin, 2-acetylaminofluorene, or cycloheximide in rat hepatocytes” (Hepatology, 1997).

Molecular target: ATP-binding cassette sub-family C member 2 (Rattus norvegicus, UniProt Q63120)
Experiment: TP_TRANSPORTER: Northern blot from primary hepatocytes
Type: functional, cell-based, Hepatocyte

Chain of ATP-binding cassette sub-family C member 2 (Q63120 whole entry): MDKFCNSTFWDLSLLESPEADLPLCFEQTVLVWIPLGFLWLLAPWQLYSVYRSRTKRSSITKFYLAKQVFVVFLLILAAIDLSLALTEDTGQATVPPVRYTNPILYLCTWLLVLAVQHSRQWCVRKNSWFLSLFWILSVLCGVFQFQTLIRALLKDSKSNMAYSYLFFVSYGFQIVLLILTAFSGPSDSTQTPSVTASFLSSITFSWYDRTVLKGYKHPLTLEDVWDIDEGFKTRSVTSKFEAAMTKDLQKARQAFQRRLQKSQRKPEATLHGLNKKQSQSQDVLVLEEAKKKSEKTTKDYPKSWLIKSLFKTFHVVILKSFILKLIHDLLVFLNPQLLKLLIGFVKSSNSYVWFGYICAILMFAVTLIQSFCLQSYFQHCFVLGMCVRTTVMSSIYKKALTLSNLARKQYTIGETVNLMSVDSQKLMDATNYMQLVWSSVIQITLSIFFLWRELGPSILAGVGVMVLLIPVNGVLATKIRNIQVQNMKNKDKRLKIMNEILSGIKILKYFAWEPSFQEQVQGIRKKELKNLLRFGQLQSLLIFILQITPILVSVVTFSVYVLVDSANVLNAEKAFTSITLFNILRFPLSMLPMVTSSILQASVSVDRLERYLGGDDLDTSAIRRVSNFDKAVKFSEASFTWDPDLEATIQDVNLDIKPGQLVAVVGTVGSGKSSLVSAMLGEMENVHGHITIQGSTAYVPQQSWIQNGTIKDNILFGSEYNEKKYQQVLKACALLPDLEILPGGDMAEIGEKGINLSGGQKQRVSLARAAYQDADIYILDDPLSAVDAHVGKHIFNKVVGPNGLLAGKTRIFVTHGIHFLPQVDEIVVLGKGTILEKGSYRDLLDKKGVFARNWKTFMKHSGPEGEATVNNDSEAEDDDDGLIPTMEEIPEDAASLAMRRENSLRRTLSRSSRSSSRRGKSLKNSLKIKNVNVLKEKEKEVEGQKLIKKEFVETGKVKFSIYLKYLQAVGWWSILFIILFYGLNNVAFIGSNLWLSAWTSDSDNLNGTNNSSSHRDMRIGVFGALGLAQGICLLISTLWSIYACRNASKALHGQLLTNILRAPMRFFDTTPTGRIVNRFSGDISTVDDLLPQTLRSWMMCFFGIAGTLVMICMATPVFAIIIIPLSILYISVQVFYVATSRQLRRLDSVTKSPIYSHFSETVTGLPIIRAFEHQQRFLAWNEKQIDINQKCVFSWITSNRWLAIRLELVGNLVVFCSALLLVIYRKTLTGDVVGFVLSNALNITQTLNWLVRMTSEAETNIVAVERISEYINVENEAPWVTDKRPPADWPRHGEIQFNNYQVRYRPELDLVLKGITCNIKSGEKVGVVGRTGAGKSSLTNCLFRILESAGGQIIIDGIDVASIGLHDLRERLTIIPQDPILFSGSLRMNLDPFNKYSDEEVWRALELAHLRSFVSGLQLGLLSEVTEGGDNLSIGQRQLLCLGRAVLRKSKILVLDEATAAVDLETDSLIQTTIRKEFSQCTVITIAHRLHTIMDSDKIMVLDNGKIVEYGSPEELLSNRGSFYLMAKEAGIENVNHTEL

## C[C@@H]1C[C@@H]([C@H](O)CC2CC(=O)NC(=O)C2)C(=O)[C@@H](C)C1 [CYCLOHEXIMIDE]
  Activity: inducer [+]
